According to US20070207946A1, “Dipeptidyl peptidase IV inhibitors and their uses for lowering blood pressure levels” (priority 2001, published 2007):

Biological target: T1, recombinant human prolyl oligopeptidase (Homo sapiens, UniProt P48147)
T1 construct: made in house; host or cells: E. coli
T1 sequence (P48147 1-710): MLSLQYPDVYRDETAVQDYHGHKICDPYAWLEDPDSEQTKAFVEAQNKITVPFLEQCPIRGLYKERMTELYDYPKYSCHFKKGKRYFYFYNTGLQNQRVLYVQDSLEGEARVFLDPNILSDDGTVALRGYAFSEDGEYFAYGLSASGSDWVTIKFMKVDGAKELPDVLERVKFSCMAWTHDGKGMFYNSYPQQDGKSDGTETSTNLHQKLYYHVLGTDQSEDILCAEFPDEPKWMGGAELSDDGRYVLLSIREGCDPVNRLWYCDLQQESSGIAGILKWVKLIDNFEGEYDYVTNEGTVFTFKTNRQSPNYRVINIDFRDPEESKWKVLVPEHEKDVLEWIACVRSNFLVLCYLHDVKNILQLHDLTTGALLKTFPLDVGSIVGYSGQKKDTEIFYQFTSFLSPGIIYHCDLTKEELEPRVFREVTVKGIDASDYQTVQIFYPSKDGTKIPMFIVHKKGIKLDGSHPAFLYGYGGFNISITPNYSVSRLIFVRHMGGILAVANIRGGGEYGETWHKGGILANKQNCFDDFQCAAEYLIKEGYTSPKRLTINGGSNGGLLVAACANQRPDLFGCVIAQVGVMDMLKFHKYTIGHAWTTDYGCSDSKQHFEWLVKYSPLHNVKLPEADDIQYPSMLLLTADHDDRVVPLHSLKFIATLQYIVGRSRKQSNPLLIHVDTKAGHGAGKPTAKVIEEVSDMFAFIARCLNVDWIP
Test: Cross reacting enzymes - prolyl oligopeptidase
Format: biochemical
Settings: concentration range 1*10^−4M-5*10^−8 M; pH7.6
Experimental: Substrates are peptides with a molecular weight up to 3000 Da. The enzyme used was a recombinant human prolyl oligopeptidase. Recombinant expression was performed in E. coli under standard conditions as described elsewhere in the state of the art.
100 μl glutaminyl pyrrolidine or glutaminyl thiazolidine in an concentration range of 1*10^−4M-5*10^−8 M were admixed with 100 μl μl buffer solution (40 mM HEPES, pH7.6, 0.015% Brij, 1 mM DTT) and 20 μl POP solution. The assay mixture was pre-incubated at 30° C. for 15 min. After pre-incubation, 50 μl glycylprolylprolyl-4-nitroaniline solution (0.29 mM) was added and measurement of yellow color development due to 4-nitroaniline release was performed at 30° C. and λ=405 nm for 10 min using a plate reader (sunrise, Tecan, Crailsheim, Germany). The IC50-values were calculated using Graphit 4.0.15 (Erithacus Software, Ltd., UK).

- inhibition of POP activity: No inhibition
Compound: NC(=O)CCC(N)C(=O)N1CCCC1 (stereo not shown) [Gln-Pyrr, glutaminyl pyrrolidine]
